Reference: the CheMixHub ionic liquid set

Experiment: xn = mol fraction of the nth substance listed

Cc1ncc(CO)c(CO)c1O.Cl + CCCC[n+]1ccn(C)c1.[Br-] + O
viscosity [mPa·s], 100 kPa
Conditions	x1 = 0.0002684, x2 = 0	x1 = 0.0005421, x2 = 0	x1 = 0.0008084, x2 = 0	x1 = 0.001085, x2 = 0	x1 = 0.001353, x2 = 0	x1 = 0.001621, x2 = 0
293.15 K	1.007	1.012	1.017	1.022	1.027	1.032
298.15 K	0.895	0.9	0.905	0.91	0.915	0.921
303.15 K	0.801	0.806	0.811	0.816	0.821	0.826
308.15 K	0.722	0.727	0.732	0.737	0.741	0.747
313.15 K	0.657	0.662	0.667	0.671	0.676	0.681

CCO + CCCC[n+]1ccn(C)c1.[Cl-]
Conditions	viscosity [mPa·s]
303.15 K, 101 kPa, x1 = 1	0.99

CCO + CCCC[n+]1ccn(C)c1.[I-]
Conditions	electrical conductivity [S/m]
298.15 K, 100 kPa, x2 = 0	3.98e-05

CC[S+](CC)CC.O=S(=O)([N-]S(=O)(=O)C(F)(F)F)C(F)(F)F + CCCO
Conditions	viscosity [mPa·s]
313.15 K, 100 kPa, x1 = 0.6987	10.75

CCCCCC[N+]1(C)CCCC1.O=S(=O)([N-]S(=O)(=O)C(F)(F)F)C(F)(F)F + CCC[N+]1(C)CCCC1.O=S(=O)([N-]S(=O)(=O)C(F)(F)F)C(F)(F)F
101 kPa
Conditions	electrical conductivity, 313.15 K [S/m]	electrical conductivity, 353.15 K [S/m]	viscosity, 313.15 K [mPa·s]	viscosity, 353.15 K [mPa·s]
x1 = 0.25	0.581	–	38.6	–
x1 = 0.5	–	1.23	–	13.2

Oc1cccc(O)c1O + CCC[N+](CCC)(CCC)CCC.[Br-]
101.3 kPa, x2 = 0.5
Conditions	electrical conductivity [S/m]	viscosity [mPa·s]
293.15 K	0.00158	36500
298.15 K	0.00309	–
303.15 K	0.00531	17000
308.15 K	0.0126	11500
313.15 K	0.0186	6800
333.15 K	0.0967	850

CCO + CCOC(C)(C)C + CCOS(=O)(=O)[O-].CC[n+]1ccn(C)c1
Conditions	viscosity [mPa·s]
298.15 K, 101 kPa, x1 = 1, x2 = 0	1.077

CCO + CCOP(=O)([O-])OCC.CC[N+]1(C)CCCC1
100 kPa, x2 = 0
Conditions	viscosity [mPa·s]
293.15 K	1.18
298.15 K	1.11
303.15 K	0.98
308.15 K	0.89
313.15 K	0.82
318.15 K	0.75
323.15 K	0.69
328.15 K	0.65
333.15 K	0.6
338.15 K	0.56

CCO + CCOP(=O)([O-])OCC.CC[N+]1(C)CCOCC1
100 kPa, x2 = 0
Conditions	viscosity [mPa·s]
293.15 K	1.18
298.15 K	1.11
303.15 K	0.98
308.15 K	0.89
313.15 K	0.82
318.15 K	0.75
323.15 K	0.69
328.15 K	0.65
333.15 K	0.6
338.15 K	0.56

CCO + CCOP(=O)([O-])OCC.CC[n+]1ccn(C)c1
Conditions	viscosity [mPa·s]
318.15 K, 100 kPa, x2 = 0	0.75

CCO + CC[N+]1(C)CCCC1.COP(=O)([O-])OC
100 kPa, x2 = 0
Conditions	viscosity [mPa·s]
308.15 K	0.9
318.15 K	0.75
328.15 K	0.63
333.15 K	0.58

CCO + CC[n+]1ccccc1.N#C[N-]C#N
Conditions	viscosity [mPa·s]
288.15 K, 100 kPa, x1 = 1	1.29

CCO + CC[n+]1ccn(C)c1.COP(=O)([O-])OC
100 kPa, x2 = 0
Conditions	viscosity [mPa·s]
298.15 K	1.08
328.15 K	0.646

CCO + CC[n+]1ccn(C)c1.COS(=O)(=O)[O-]
101 kPa, x2 = 0
Conditions	viscosity [mPa·s]
283.15 K	1.44
293.15 K	1.18
303.15 K	0.98
313.15 K	0.83
323.15 K	0.7

CC[n+]1ccn(C)c1.O=C([O-])[C@@H]1CCCN1 + CC[n+]1ccn(C)c1.N#C[C-](C#N)C#N
Conditions	viscosity [mPa·s]
298.15 K, 101 kPa, x2 = 0	1195

CCO + CC[n+]1ccn(C)c1.N#C[N-]C#N
viscosity [mPa·s]
Conditions	298.15 K	303.15 K	308.15 K	313.15 K	318.15 K	323.15 K	328.15 K
100 kPa, x2 = 0	1.11	1.02	0.93	0.85	0.78	0.71	–
101 kPa, x1 = 1	–	–	–	0.83	–	–	0.64

CCCCn1cc[n+](CCOCCOCCOCC[n+]2ccn(CCCC)c2)c1.N#C[N-]C#N.N#C[N-]C#N + CC[n+]1ccn(C)c1.N#C[N-]C#N + O=S(=O)([N-]S(=O)(=O)C(F)(F)F)C(F)(F)F.[Li+]
100 kPa, x1 = 0.2237, x2 = 0.6826
Conditions	electrical conductivity [S/m]
298 K	0.491
303 K	0.589
313 K	0.812
323 K	1.1
333 K	1.42
343 K	1.79

CC[S+](CC)CCOCCOCCOCCOCC[S+](CC)CC.N#C[N-]C#N.N#C[N-]C#N + CC[n+]1ccn(C)c1.N#C[N-]C#N + O=S(=O)([N-]S(=O)(=O)C(F)(F)F)C(F)(F)F.[Li+]
100 kPa, x1 = 0.2317, x2 = 0.6756
Conditions	electrical conductivity [S/m]
298 K	0.811
303 K	1.16
313 K	1.35
323 K	1.51
333 K	1.93
343 K	2.26

CC[S+](CC)CCOCC[S+](CC)CC.N#C[N-]C#N.N#C[N-]C#N + CC[n+]1ccn(C)c1.N#C[N-]C#N + O=S(=O)([N-]S(=O)(=O)C(F)(F)F)C(F)(F)F.[Li+]
100 kPa, x1 = 0.2884, x2 = 0.6258
Conditions	electrical conductivity [S/m]
298 K	0.519
303 K	0.632
313 K	0.863
323 K	1.17
333 K	1.54
343 K	1.95

CCO + CC[n+]1ccn(C)c1.N#C[S-]
101 kPa, x2 = 0
Conditions	viscosity [mPa·s]
293.15 K	1.18
303.15 K	0.98

Cc1ncc[nH]1 + CC[n+]1ccn(C)c1.[Cl-]
101.33 kPa, x2 = 0.667
Conditions	viscosity [mPa·s]
303.15 K	394
313.15 K	182.1
323.15 K	101.5
333.15 K	57.3
343.15 K	38
353.15 K	27

CCO + CC[n+]1ccn(C)c1.[I-]
Conditions	electrical conductivity [S/m]
298.15 K, 100 kPa, x2 = 0	5.54e-05

CCO + CC[n+]1ccn(CCOC)c1.N#C[S-]
Conditions	viscosity [mPa·s]
308.15 K, 100 kPa, x2 = 0	0.902

CCO + CC[n+]1ccn(CCOC)c1.O=S(=O)([N-]S(=O)(=O)C(F)(F)F)C(F)(F)F
100 kPa, x2 = 0
Conditions	viscosity [mPa·s]
288.15 K	1.334
293.15 K	1.202
298.15 K	1.111
303.15 K	1.003
308.15 K	0.907
313.15 K	0.83
318.15 K	0.76

CCC=C[n+]1ccn(C)c1C.O=[N+]([O-])c1cn[n-]c1 + COCCOCCOCCOCCOC
100 kPa
Conditions	viscosity [mPa·s]
278.15 K, x1 = 0.601	267
278.15 K, x1 = 0.952	4300
283.15 K, x1 = 0.9	1510
288.15 K, x1 = 0.9	864
288.15 K, x1 = 0.952	1210
293.15 K, x1 = 0.601	87
298.15 K, x1 = 0.701	121
298.15 K, x1 = 0.952	439
303.15 K, x1 = 0.801	138
313.15 K, x1 = 0.9	117
323.15 K, x1 = 0.952	81

CCCCCCCC[P+](CC)(CC)CC.Cc1ncc([N+](=O)[O-])[n-]1 + COCCOCCOCCOCCOC
viscosity [mPa·s], 100 kPa
Conditions	278.15 K	283.15 K	288.15 K	293.15 K	298.15 K	303.15 K	308.15 K	313.15 K	318.15 K	323.15 K
x2 = 0	3660	2240	1410	920	623	435	313	231	174	135
x2 = 0.036	2730	1700	1090	722	495	350	255	189	145	113
x2 = 0.067	1990	1270	829	559	390	280	206	155	120	95
x2 = 0.115	1470	955	636	438	310	227	170	130	101	81
x2 = 0.233	651	446	311	223	166	126	98	78	62	–
x2 = 0.3	375	262	187	137	103	80	64	51	–	–
x2 = 0.399	200	145	107	81	64	50	–	–	–	–
x2 = 0.5	113	86	66	51	–	–	–	–	–	–
x2 = 0.598	62	–	–	–	–	–	–	–	–	–
